Experimental data published in patent publication US10913983B2, “Sensitivity markers and uses for CDK7 inhibitors in breast cancers” (UNIVERSITY OF SOUTH CAROLINA, priority 2017, dated 2021).
Read-outs that look alike come from different tables or passages of the source.

Experiments:
[1] = test system: ZR751; conditions: fold change in gene expression, THZ1; cited from earlier work
[2] = test system: ZR-75-1; test: Cell proliferation MTT assay; assay type: cell-based
Protocol: (§1) Cells were seeded in 12-well plates at densities ranging from 10000-30000 cells/well and after 24 hours cells were treated with 10, 40 and 100 nM THZ1 in triplicate. After 7 days the cells were imaged using Zeiss Axiovert 200 microscope using a 20× objective lens. Additionally, cells were plated in 96-well plates at a density of 2000 cells/well and after 24 hours treated with 0-10 μM THZ1. After 2 and 7 days the growth of the cells was measured by MTT assay.
(§2) All results were presented as mean±standard deviation of 4-8 parallel assessments. Similar results were obtained from a minimum of two independent experiments. […] Densitometry was performed on duplicate immunoblots using ImageLab software (Biorad) and normalized to tubulin loading controls and then correlated with the THZ1 IC50 values of each cell line. Statistical analyses were performed using SPSS 18.0 (SPSS Inc). Bi-variant scatter graphs and Spearman rank analyses were performed to evaluate associations between protein levels, mRNA and response to inhibition. IC50 values were calculated for MTT assays using CompuSyn software.

[3] = test system: MDA-MB-231; test: Cell proliferation MTT assay; assay type: cell-based
Protocol: as §1, §2

[4] = test system: SKBR3; test: Cell proliferation MTT assay; assay type: cell-based
Protocol: as §1, §2

[5] = test system: PARP cleavage in MDA-MB-231, SKBR3 and JIMT-1 cells; test: Immunoblotting for PARP cleavage; assay type: cell-based; conditions: 250 nM, 24 and 48 hours
Protocol: (§3) Cells were plated in 100 mm^2 petri dishes at a density of 1×10^6 cells/plate and allowed to grow for 3-4 days until the cells reached 80% confluency. Cells were treated with THZ1 or with vehicle control (DMSO) prior to lysing cells in RIPA buffer containing protease inhibitor cocktail and PMSF. Protein concentration was determined using BCA assay (Pierce). All lysates were prepared in biological duplicates. Protein (50 μg) was resolved on 4-20% Express-Plus PAGE gels in Tris-MOPS (SDS) running buffer (GenScript), transferred to PVDF membranes and incubated at 4° C. overnight with primary antibodies: CDK7 (sc-529, SantaCruz), ER (sc-543, SantaCruz), HER2 (#4290, Cell Signaling Technology), RNA-Pol II-S2P (C152000005, Diagenode), RNA-Pol II-S5P C152000007, RNA-Pol II-S7P (04-1570, Millipore) and RNA-Pol II (sc-900X, SantaCruz), CITED2 (MAB5005, R+D Systems), Tubulin (T-9026, Sigma), followed by anti-rabbit (#31460, ThermoFisher Scientific), anti-mouse (31430, ThermoFisher Scientific) or anti-rat (AP136P, Millipore) secondary antibodies. Bands were visualized with Western Lighting Plus ECL detection reagent (Perkin Elmer) using ChemiDoc Touch™ (BioRad). Images were analyzed and densitometry performed using ImageLab software (Biorad).

[6] = test system: serum starved SKBR3 cells; test: EGF stimulation; assay type: cell-based; conditions: 100 ng/ml EGF with 250 nM THZ1, 6 hours
Protocol: SKBR3 cells were seeded into duplicate 6-well plates and allowed to grow until 80% confluent. The cells were then washed with PBS and the media was replaced with serum-free media overnight. After serum starvation the cells were treated with 100 ng/ml EGF with or without 250 nM THZ1 for 6 hours then lysates were collected for both RNA and protein analysis.

[7] = test system: CITED2; test: Immunoblotting of CITED2 protein; assay type: cell-based; conditions: 10-6250 nM, 4 hours, immunoblot
Protocol: as §3

[8] = test system: phosphorylation of RNA Pol II at S2, S5 and S7; test: Immunoblotting of RNA Pol II phosphorylation; assay type: cell-based; conditions: increasing concentrations (10-6250 nM), 4 hours, multiple breast cancer cell lines
Protocol: as §3
The effects of increasing concentrations of THZ1 on the phosphorylation of RNA Pol II at S2, S5 and S7 was tested across multiple breast cancer cell lines. […]

[9] = test system: MDA-MB-231 cells; test: Cell cycle analysis; assay type: cell-based; conditions: MDA-MB-231, 100 and 250 nM
Protocol: (§4) MDA-MB-231 and T47D cells were seeded into 6-well plates and allow to grow until 60% confluent. The cells were then washed with PBS and the media was replaced with serum-free media overnight. After serum starvation the cells were treated with serum containing media in the presence or absence of 100 and 250 nM THZ1 for 24 and 48 hours. The cells were collected, fixed in ethanol overnight and cell cycle distribution was measured using DAPI on the LSR2 (Beckman-Dickinson).

[10] = test system: T47D cells; test: Cell cycle analysis; assay type: cell-based; conditions: 100 and 250 nM, 24 or 48 hours
Protocol: as §4

Q: Which “BAMBI ZR751 FC” value [1] does the source give for CN(C)C/C=C/C(=O)Nc1ccc(C(=O)Nc2cccc(Nc3ncc(Cl)c(-c4c[nH]c5ccccc45)n3)c2)cc1 [THZ1] here?
A: −3.77

Q: And the “CDKN1B ZR751 FC” value [1]?
A: −2.57

Q: What about the “CITED2 ZR751 FC” value [1] of the same molecule?
A: −2.64

Q: And the “CYR61 ZR751 FC” value [1]?
A: −1.81

Q: What about the “DKK1 ZR751 FC” value [1] of the same molecule?
A: −4.15

Q: What about the “E2F8 ZR751 FC” value [1] of the same molecule?
A: −4.01

Q: What about the “ELF3 ZR751 FC” value [1] of the same molecule?
A: −1.65

Q: And the “FADD ZR751 FC” value [1]?
A: −4.12

Q: And the “FBXO5 ZR751 FC” value [1]?
A: −3.01

Q: What about the “MARS2 ZR751 FC” value [1] of the same molecule?
A: −3.75

Q: And the “MOCS3 ZR751 FC” value [1]?
A: −4.1

Q: And the “MYC ZR751 FC” value [1]?
A: −2.98

Q: And the “NEDD9 ZR751 FC” value [1]?
A: −2.68

Q: What about the “PHLDA1 ZR751 FC” value [1] of the same molecule?
A: −2.55

Q: What about the “PIM3 ZR751 FC” value [1] of the same molecule?
A: −3.96

Q: And the “PLK2 ZR751 FC” value [1]?
A: −3.04

Q: And the “TRIB1 ZR751 FC” value [1]?
A: −3.54

Q: What about the “WEE1 ZR751 FC” value [1] of the same molecule?
A: −3.25

Q: And the “ZNF217 ZR751 FC” value [1]?
A: −4.13

Q: What about the “ZNF627 ZR751 FC” value [1] of the same molecule?
A: −3.38

Q: What about the IC50 ([2]; ZR-75-1, 2 days, read-out: 2 day IC50) of the same molecule?
A: 286 nM

Q: And the IC50 ([2]; ZR-75-1, 7 days, read-out: 7 day IC50)?
A: 50 nM

Q: And the IC50 ([3]; MDA-MB-231, 2 days, read-out: 2 day IC50)?
A: 159 nM

Q: And the IC50 ([3]; MDA-MB-231, 7 days, read-out: 7 day IC50)?
A: 36 nM

Q: And the IC50 ([4]; SKBR3, 2 days, read-out: 2 day IC50)?
A: 23 nM

Q: What about the IC50 ([4]; SKBR3, 7 days, read-out: 7 day IC50) of the same molecule?
A: 9 nM

Q: What about the PARP cleavage [5] of the same molecule?
A: induced PARP cleavage only in the SKBR3 cells

Q: What about the “EGF induction of CITED2 expression (mRNA)” value [6] of the same molecule?
A: prevented

Q: And the “EGF induction of mRNA expression of EGFR, MYC, CDKN1B, PLK2 and FOXC1” value [6]?
A: prevented

Q: And the “EGF-induced increase of CITED2 protein” value [6]?
A: prevented

Q: What about the “protein expression of CITED2” value [7] of the same molecule?
A: significantly decreased

Q: What about the “phosphorylation of RNA Pol II at S2, S5 and S7” value [8] of the same molecule?
A: inhibited the phosphorylation of all three sites in a dose dependent manner

Q: What about the cell cycle distribution ([9]; 24 hours) of the same molecule?
A: G1 arrest

Q: And the cell cycle distribution ([9]; 48 hours)?
A: increased sub-G1 (apoptotic cell) accumulation

Q: What about the cell cycle distribution [10] of the same molecule?
A: G1 arrest
